Numbers after ± are expanded uncertainties.
Assay: xn = mol fraction of the nth substance listed
Settings: 101.3 kPa, Liquid, Vibrating tube method

COCCOCCOC [2,5,8-trioxanonane] + ClCCCl
mass density (308.15 K, x2 = 0.4): 1013.05 ± 0.2 kg/m3
mass density (308.15 K, x2 = 0.45): 1025.99 ± 0.2 kg/m3
mass density (308.15 K, x2 = 0.5003): 1039.78 ± 0.21 kg/m3
mass density (308.15 K, x2 = 0.5499): 1054.03 ± 0.22 kg/m3
mass density (308.15 K, x2 = 0.5999): 1069.2 ± 0.22 kg/m3
mass density (308.15 K, x2 = 0.6501): 1085.36 ± 0.23 kg/m3
mass density (308.15 K, x2 = 0.7): 1102.36 ± 0.24 kg/m3
mass density (308.15 K, x2 = 0.75): 1120.21 ± 0.25 kg/m3
mass density (308.15 K, x2 = 0.8): 1139.52 ± 0.27 kg/m3
mass density (308.15 K, x2 = 0.8499): 1159.94 ± 0.28 kg/m3
mass density (308.15 K, x2 = 0.9): 1181.94 ± 0.3 kg/m3
mass density (308.15 K, x2 = 0.925): 1193.47 ± 0.31 kg/m3
mass density (308.15 K, x2 = 0.9494): 1205.37 ± 0.32 kg/m3
mass density (308.15 K, x2 = 0.975): 1218.05 ± 0.33 kg/m3
mass density (313.15 K, x2 = 0.0252): 928.2 ± 0.25 kg/m3
mass density (313.15 K, x2 = 0.0508): 932.81 ± 0.24 kg/m3
mass density (313.15 K, x2 = 0.0751): 937.26 ± 0.24 kg/m3
mass density (313.15 K, x2 = 0.1): 941.89 ± 0.23 kg/m3
mass density (313.15 K, x2 = 0.1502): 951.65 ± 0.22 kg/m3
mass density (313.15 K, x2 = 0.1999): 961.71 ± 0.22 kg/m3
mass density (313.15 K, x2 = 0.25): 972.4 ± 0.21 kg/m3
mass density (313.15 K, x2 = 0.3002): 983.61 ± 0.2 kg/m3
mass density (313.15 K, x2 = 0.3501): 995.21 ± 0.2 kg/m3
mass density (313.15 K, x2 = 0.4): 1007.46 ± 0.2 kg/m3
mass density (313.15 K, x2 = 0.45): 1020.29 ± 0.2 kg/m3
mass density (313.15 K, x2 = 0.5003): 1033.98 ± 0.21 kg/m3
mass density (313.15 K, x2 = 0.5499): 1048.12 ± 0.21 kg/m3
mass density (313.15 K, x2 = 0.5999): 1063.17 ± 0.22 kg/m3
mass density (313.15 K, x2 = 0.6501): 1079.21 ± 0.23 kg/m3
mass density (313.15 K, x2 = 0.7): 1096.08 ± 0.24 kg/m3
mass density (313.15 K, x2 = 0.75): 1113.78 ± 0.25 kg/m3
mass density (313.15 K, x2 = 0.8): 1132.93 ± 0.26 kg/m3
mass density (313.15 K, x2 = 0.8499): 1153.19 ± 0.28 kg/m3
mass density (313.15 K, x2 = 0.9): 1175 ± 0.29 kg/m3
mass density (313.15 K, x2 = 0.925): 1186.42 ± 0.31 kg/m3
mass density (313.15 K, x2 = 0.9494): 1198.22 ± 0.32 kg/m3
mass density (313.15 K, x2 = 0.975): 1210.78 ± 0.32 kg/m3
mass density (318.15 K, x2 = 0.0252): 923.14 ± 0.25 kg/m3
mass density (318.15 K, x2 = 0.0508): 927.72 ± 0.24 kg/m3
mass density (318.15 K, x2 = 0.0751): 932.15 ± 0.24 kg/m3
mass density (318.15 K, x2 = 0.1): 936.74 ± 0.23 kg/m3
mass density (318.15 K, x2 = 0.1502): 946.43 ± 0.22 kg/m3
mass density (318.15 K, x2 = 0.1999): 956.42 ± 0.22 kg/m3
mass density (318.15 K, x2 = 0.25): 967.04 ± 0.21 kg/m3
mass density (318.15 K, x2 = 0.3002): 978.16 ± 0.2 kg/m3
mass density (318.15 K, x2 = 0.3501): 989.69 ± 0.2 kg/m3
mass density (318.15 K, x2 = 0.4): 1001.83 ± 0.19 kg/m3
mass density (318.15 K, x2 = 0.45): 1014.56 ± 0.2 kg/m3
mass density (318.15 K, x2 = 0.5003): 1028.16 ± 0.2 kg/m3
mass density (318.15 K, x2 = 0.5499): 1042.19 ± 0.21 kg/m3
mass density (318.15 K, x2 = 0.5999): 1057.13 ± 0.22 kg/m3
mass density (318.15 K, x2 = 0.6501): 1073.04 ± 0.23 kg/m3
mass density (318.15 K, x2 = 0.7): 1089.77 ± 0.24 kg/m3
mass density (318.15 K, x2 = 0.75): 1107.32 ± 0.25 kg/m3
mass density (318.15 K, x2 = 0.8): 1126.31 ± 0.26 kg/m3
mass density (318.15 K, x2 = 0.8499): 1146.4 ± 0.28 kg/m3
mass density (318.15 K, x2 = 0.9): 1168.02 ± 0.29 kg/m3
mass density (318.15 K, x2 = 0.925): 1179.34 ± 0.31 kg/m3
mass density (318.15 K, x2 = 0.9494): 1191.02 ± 0.31 kg/m3
mass density (323.15 K, x2 = 0.0252): 918.07 ± 0.25 kg/m3
mass density (323.15 K, x2 = 0.0508): 922.62 ± 0.24 kg/m3
mass density (323.15 K, x2 = 0.0751): 927.01 ± 0.24 kg/m3
mass density (323.15 K, x2 = 0.1): 931.58 ± 0.23 kg/m3
mass density (323.15 K, x2 = 0.1502): 941.2 ± 0.22 kg/m3
mass density (323.15 K, x2 = 0.1999): 951.12 ± 0.22 kg/m3
mass density (323.15 K, x2 = 0.25): 961.66 ± 0.21 kg/m3
mass density (323.15 K, x2 = 0.3002): 972.68 ± 0.2 kg/m3
mass density (323.15 K, x2 = 0.3501): 984.14 ± 0.2 kg/m3
mass density (323.15 K, x2 = 0.4): 996.19 ± 0.19 kg/m3
mass density (323.15 K, x2 = 0.45): 1008.81 ± 0.2 kg/m3
mass density (323.15 K, x2 = 0.5003): 1022.31 ± 0.2 kg/m3
mass density (323.15 K, x2 = 0.5499): 1036.25 ± 0.21 kg/m3
mass density (323.15 K, x2 = 0.5999): 1051.05 ± 0.21 kg/m3
mass density (323.15 K, x2 = 0.6501): 1066.84 ± 0.22 kg/m3
mass density (323.15 K, x2 = 0.7): 1083.44 ± 0.23 kg/m3
mass density (323.15 K, x2 = 0.75): 1100.83 ± 0.24 kg/m3
mass density (323.15 K, x2 = 0.8): 1119.65 ± 0.26 kg/m3
mass density (323.15 K, x2 = 0.8499): 1139.57 ± 0.27 kg/m3
mass density (323.15 K, x2 = 0.9): 1160.99 ± 0.29 kg/m3
mass density (323.15 K, x2 = 0.925): 1172.21 ± 0.3 kg/m3
mass density (323.15 K, x2 = 0.9494): 1183.78 ± 0.31 kg/m3
mass density (328.15 K, x2 = 0.0252): 912.99 ± 0.25 kg/m3
mass density (328.15 K, x2 = 0.0508): 917.5 ± 0.24 kg/m3
mass density (328.15 K, x2 = 0.0751): 921.85 ± 0.24 kg/m3
mass density (328.15 K, x2 = 0.1): 926.39 ± 0.23 kg/m3
mass density (328.15 K, x2 = 0.1502): 935.95 ± 0.22 kg/m3
mass density (328.15 K, x2 = 0.1999): 945.79 ± 0.22 kg/m3
mass density (328.15 K, x2 = 0.25): 956.26 ± 0.21 kg/m3
mass density (328.15 K, x2 = 0.3002): 967.18 ± 0.2 kg/m3
mass density (328.15 K, x2 = 0.3501): 978.56 ± 0.2 kg/m3
mass density (328.15 K, x2 = 0.4): 990.53 ± 0.19 kg/m3
mass density (328.15 K, x2 = 0.45): 1003.05 ± 0.19 kg/m3
mass density (328.15 K, x2 = 0.5003): 1016.44 ± 0.2 kg/m3
mass density (328.15 K, x2 = 0.5499): 1030.26 ± 0.2 kg/m3
mass density (328.15 K, x2 = 0.5999): 1044.95 ± 0.21 kg/m3
mass density (328.15 K, x2 = 0.6501): 1060.6 ± 0.22 kg/m3
mass density (328.15 K, x2 = 0.7): 1077.08 ± 0.23 kg/m3
mass density (328.15 K, x2 = 0.75): 1094.32 ± 0.24 kg/m3
mass density (328.15 K, x2 = 0.8): 1112.98 ± 0.26 kg/m3
mass density (328.15 K, x2 = 0.8499): 1132.71 ± 0.27 kg/m3
mass density (328.15 K, x2 = 0.9): 1153.95 ± 0.28 kg/m3
mass density (328.15 K, x2 = 0.925): 1165.08 ± 0.3 kg/m3
mass density (328.15 K, x2 = 0.9494): 1176.54 ± 0.31 kg/m3
mass density (333.15 K, x2 = 0.0252): 907.88 ± 0.25 kg/m3
mass density (333.15 K, x2 = 0.0508): 912.36 ± 0.24 kg/m3
mass density (333.15 K, x2 = 0.0751): 916.68 ± 0.24 kg/m3
mass density (333.15 K, x2 = 0.1): 921.19 ± 0.23 kg/m3
mass density (333.15 K, x2 = 0.1502): 930.67 ± 0.22 kg/m3
mass density (333.15 K, x2 = 0.1999): 940.45 ± 0.22 kg/m3
mass density (333.15 K, x2 = 0.25): 950.83 ± 0.21 kg/m3
mass density (333.15 K, x2 = 0.3002): 961.67 ± 0.2 kg/m3
mass density (333.15 K, x2 = 0.3501): 972.96 ± 0.2 kg/m3
mass density (333.15 K, x2 = 0.4): 984.84 ± 0.19 kg/m3
mass density (333.15 K, x2 = 0.45): 997.27 ± 0.19 kg/m3
mass density (333.15 K, x2 = 0.5003): 1010.54 ± 0.2 kg/m3
mass density (333.15 K, x2 = 0.5499): 1024.25 ± 0.2 kg/m3
mass density (333.15 K, x2 = 0.5999): 1038.81 ± 0.21 kg/m3
mass density (333.15 K, x2 = 0.6501): 1054.34 ± 0.22 kg/m3
mass density (333.15 K, x2 = 0.7): 1070.67 ± 0.23 kg/m3
mass density (333.15 K, x2 = 0.75): 1087.77 ± 0.24 kg/m3
mass density (333.15 K, x2 = 0.8): 1106.28 ± 0.25 kg/m3
mass density (333.15 K, x2 = 0.8499): 1125.84 ± 0.27 kg/m3
mass density (333.15 K, x2 = 0.9): 1146.89 ± 0.28 kg/m3
mass density (333.15 K, x2 = 0.925): 1157.9 ± 0.29 kg/m3
mass density (333.15 K, x2 = 0.9494): 1169.26 ± 0.3 kg/m3
